Laboratory results: patent publication US20080058330A1, “Compounds and Combinations Thereof for Inhibiting Beta-Amyloid Production and Methods of Use Thereof” (Roskamp Research LLC, priority 2006, published 2008)

Test system: not given
Assay: not given
Conditions: not given

SMILES	melting point
CCOC(=O)C1=C(C)NC(C)=C(C(=O)OCC)C1c1ccccc1Cl [Example 6, Diethyl 4-(2-chlorophenyl)-1,4-dihydro-2,6-dimethylpyridine-3,5-dicarboxylate]	120 to 121 °C
CC(=O)C1=C(C)NC(C)=C(C(C)=O)C1c1ccccc1Cl [Example 7, 4-(2-Chlorophenyl)-1,4-dihydro-2,6-dimethylpyridine-3,5-di(2-ethanone)]	196 to 197 °C
COC(=O)C1=C(C)NC(C)=C(C(=O)OC)C1c1ccccc1Cl [Example 8, Dimethyl 4-(2-chlorophenyl)-1,4-dihydro-2,6-dimethylpyridine-3,5-dicarboxylate]	188 to 189 °C
CC1=C(C(=O)OC(C)(C)C)C(c2ccccc2Cl)C(C(=O)OC(C)(C)C)=C(C)N1 [Example 9, Di-tert-butyl 4-(2-chlorophenyl)-1,4-dihydro-2,6-dimethylpyridine-3,5-dicarboxylate]	194 to 196 °C
COCCOC(=O)C1=C(C)NC(C)=C(C(=O)OCCOC)C1c1ccccc1Cl [Example 10, Bis(2-methoxyethyl) 4-(2-chlorophenyl)-1,4-dihydro-2,6-dimethylpyridine-3,5-dicarboxylate]	120 to 121 °C
CCOC(=O)C1=C(C)NC(C)=C(C(=O)OCC)C1c1ccccc1Br [Example 11, Diethyl 4-(2-bromophenyl)-1,4-dihydro-2,6-dimethylpyridine-3,5-dicarboxylate]	144 to 145 °C
CC1=C(C(=O)OC(C)(C)C)C(c2ccccc2F)C(C(=O)OC(C)(C)C)=C(C)N1 [Example 13, Di-tert-butyl 4-(2-fluorophenyl)-1,4-dihydro-2,6-dimethylpyridine-3,5-dicarboxylate]	201 to 202 °C
CC1=C(C(=O)OC(C)(C)C)C(c2ccccc2Br)C(C(=O)OC(C)(C)C)=C(C)N1 [Example 14, Di-tert-butyl 4-(2-bromophenyl)-1,4-dihydro-2,6-dimethylpyridine-3,5-dicarboxylate]	162 to 164 °C
CCOC(=O)C1=C(C)NC(C)=C(C(=O)OCC)C1c1ccccc1[N+](=O)[O-] [Example 14, Diethyl 1,4-dihydro-2,6-dimethyl-4-(2-nitrophenyl)pyridine-3,5-dicarboxylate]	120 to 121 °C
CC1=C(C(=O)OC(C)(C)C)C(c2ccccc2[N+](=O)[O-])C(C(=O)OC(C)(C)C)=C(C)N1 [Example 15, Di-tert-butyl 1,4-dihydro-2,6-dimethyl-4-(2-nitrophenyl)pyridine-3,5-dicarboxylate]	159 to 161 °C
C=CCOC(=O)C1=C(C)NC(C)=C(C(=O)OCC=C)C1c1ccccc1Cl [Example 16, Diallyl 4-(2-chlorophenyl)-1,4-dihydro-2,6-dimethylpyridine-3,5-dicarboxylate]	98 to 99 °C
COCC1=C(C(=O)OC)C(c2ccccc2Cl)C(C(=O)OC)=C(COC)N1 [Example 17, Dimethyl 4-(2-chlorophenyl)-1,4-dihydro-2,6-bis(methoxymethyl)pyridine-3,5-dicarboxylate]	137 to 138 °C
CCOC(=O)C1=C(C)NC(C)=C(C(=O)OCC)C1c1ccccc1I [Example 18, Diethyl 1,4-dihydro-4-(2-iodophenyl)-2,6-dimethylpyridine-3,5-dicarboxylate]	173 to 174.5 °C
COC(=O)C1=C(C)NC(C)=C(C(=O)OC)C1c1ccccc1Br [Example 19, Dimethyl 4-(2-bromophenyl)-1,4-dihydro-2,6-dimethylpyridine-3,5-dicarboxylate]	164 to 165 °C
CC1=C(C(=O)OC(C)(C)C)C(c2cccc(Cl)c2)C(C(=O)OC(C)(C)C)=C(C)N1 [Example 21, Di-tert-butyl 4-(3-chlorophenyl)-1,4-dihydro-2,6-dimethylpyridine-3,5-dicarboxylate]	189.5 to 190.5 °C
CCOC(=O)C1=C(C)NC(C)=C(C(=O)OCC)C1c1ccc(Cl)cc1 [Example 22, Diethyl 4-(4-chlorophenyl)-1,4-dihydro-2,6-dimethylpyridine-3,5-dicarboxylate]	151 to 152 °C
CC1=C(C(=O)OC(C)(C)C)C(c2ccc(Cl)cc2)C(C(=O)OC(C)(C)C)=C(C)N1 [Example 23, Di-tert-butyl 4-(4-chlorophenyl)-1,4-dihydro-2,6-dimethylpyridine-3,5-dicarboxylate]	191.5 to 192.5 °C
CCOC(=O)C1=C(C)NC(C)=C(C(=O)OCC)C1c1cccc(Br)c1 [Example 24, Diethyl 4-(3-bromophenyl)-1,4-dihydro-2,6-dimethylpyridine-3,5-dicarboxylate]	125 to 126 °C
CC1=C(C(=O)OC(C)(C)C)C(c2cccc(Br)c2)C(C(=O)OC(C)(C)C)=C(C)N1 [Example 25, Di-tert-butyl 4-(3-bromophenyl)-1,4-dihydro-2,6-dimethylpyridine-3,5-dicarboxylate]	195 to 196 °C

Test system: 7W WT APP751 CHO cells
Assay: Screening of dihydropyridine compounds (Maybridge), Aβ1-40 and Aβ1-42 ELISA (Example 2)
Format: cell-based, Chinese hamster
Conditions: 30 μM, 24 hours (FIG. 5A, 5B)
Protocol: Dihydropyridine compounds were obtained from Maybridge (England). Each compound was dissolved in DMSO. 7W WT APP751 CHO cells overexpressing APP751 were plated into 96-well culture plates in 200 μL of culture medium. Each compound from the library was added to confluent cells to a final concentration of 30 μM. After 24 hours of treatment, culture medium was collected and dissolved 10-fold and 2-fold for measuring the level of Aβ1-40 and Aβ1-42, respectively. Aβ1-40 and Aβ1-42 were determined using commercially available ELISAs (Biosource, CA), following the recommendations of the manufacturer.

SMILES	concentration of Aβ1-40 compared to controls	concentration of Aβ1-42 compared to controls	concentration of total β-amyloid (Aβ1-40+Aβ1-42) compared to controls
COC(=O)C1=C(C)NC(C)=C(C(=O)OC)C1c1ccc(Cl)c(Cl)c1 [JFD 03293, dimethyl 4-(3,4-dichlorophenyl)-2,6-dimethyl-1,4-dihydropyridine-3,5-dicarboxylate]	significantly decreased	significantly decreased	significantly decreased
CCOC(=O)C1=C(C)NC(C)=C(C(=O)OCC)C1c1ccc(Cl)c(Cl)c1 [JFD 03294, diethyl 4-(3,4-dichlorophenyl)-2,6-dimethyl-1,4-dihydropyridine-3,5-dicarboxylate]	significantly decreased	significantly decreased	significantly decreased
CCOC(=O)C1=C(C)NC(C)=C(C(=O)OCC)C1c1ccccc1Cl [JFD 03305, diethyl 4-(2-chlorophenyl)-2,6-dimethyl-1,4-dihydropyridine-3,5-dicarboxylate]	significantly decreased	significantly decreased	significantly decreased
CCOC(=O)C1=C(C)NC(C)=C(C(=O)OCC)C1c1ccccc1[N+](=O)[O-] [JFD 03311, diethyl 2,6-dimethyl-4-(2-nitrophenyl)-1,4-dihydropyridine-3,5-dicarboxylate]	significantly decreased	–	significantly decreased
CCOC(=O)C1=C(C)NC(C)=C(C(=O)OCC)C1c1ccc(F)cc1 [JFD 03318, diethyl 4-(4-fluorophenyl)-2,6-dimethyl-1,4-dihydropyridine-3,5-dicarboxylate]	significantly decreased	significantly decreased	significantly decreased
O=C1CC(c2ccccc2)CC(=O)N1c1ccc(Oc2ccc(Cl)cc2)cc1 [PD 00463, 1-[4-(4-chlorophenoxy)phenyl]-4-phenyldihydropyridine-2,6(1H,3H)-dione]	significantly decreased	significantly decreased	significantly decreased
CCOC(=O)C1=C(C)NC(C)=C(C(=O)OCC)C1c1ccc(Cl)cc1Cl [RJC 03403, diethyl 4-(2,4-dichlorophenyl)-2,6-dimethyl-1,4-dihydro-3,5-pyridinedicarboxylate]	significantly decreased	significantly decreased	significantly decreased
CCOC(=O)C1=C(C)NC(C)=C(C(=O)OCC)C1c1ccc(-c2ccccc2C(F)(F)F)o1 [RJC 03405, diethyl 2,6-dimethyl-4-{5-[2-(trifluoromethyl)phenyl]-2-furyl}-1,4-dihydro-3,5-pyridinedicarboxylate]	significantly decreased	–	significantly decreased
CCOC(=O)C1=C(C)NC(C)=C(C(=O)OCC)C1c1ccc(OC)cc1Cl [RJC 03413, diethyl 4-(2-chloro-4-methoxyphenyl)-2,6-dimethyl-1,4-dihydro-3,5-pyridinedicarboxylate]	significantly decreased	–	significantly decreased
COC(=O)C1=C(C)NC(C)=C(C(=O)OC)C1c1ccc(-c2ccsc2C(=O)OC)o1 [SEW 02070, dimethyl 4-{5-[2-(methoxycarbonyl)-3-thienyl]-2-furyl}-2,6-dimethyl-1,4-dihydropyridine-3,5-dicarboxylate]	significantly decreased	–	significantly decreased
CCOC(=O)C1=C(C)NC(C)=C(C(=O)OCC)C1c1cccc([N+](=O)[O-])c1 [XBX 00343, diethyl 2,6-dimethyl-4-(3-nitrophenyl)-1,4-dihydropyridine-3,5-dicarboxylate]	significantly decreased	–	significantly decreased
